Reference: patent publication US9765092B2, “Tricyclic piperidine compounds” (ACTELION PHARMACEUTICALS LTD, priority 2013, dated 2017)

biological target: human TPH1 (Homo sapiens (Human), UniProt P17752); experiment: Biochemical in vitro assay using fluorescence readout (TPH1 inhibition); conditions: not given
Sequence (P17752 whole entry): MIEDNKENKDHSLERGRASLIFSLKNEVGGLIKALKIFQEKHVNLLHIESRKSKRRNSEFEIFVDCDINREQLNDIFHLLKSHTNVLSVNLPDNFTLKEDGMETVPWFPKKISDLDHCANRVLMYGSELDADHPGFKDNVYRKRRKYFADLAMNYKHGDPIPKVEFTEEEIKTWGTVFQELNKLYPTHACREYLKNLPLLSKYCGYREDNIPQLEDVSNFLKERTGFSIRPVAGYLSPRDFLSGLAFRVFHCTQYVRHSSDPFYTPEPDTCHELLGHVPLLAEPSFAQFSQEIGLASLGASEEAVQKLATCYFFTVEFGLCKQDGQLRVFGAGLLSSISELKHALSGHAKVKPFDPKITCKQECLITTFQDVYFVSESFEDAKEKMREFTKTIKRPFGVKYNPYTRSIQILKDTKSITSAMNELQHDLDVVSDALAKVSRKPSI

`Cc1nn2c3c(nc2s1)CCN(C(=O)COc1ccc(NS(C)(=O)=O)nc1Cl)C3c1ncccc1F` (stereo not shown) [Example 1.35.4, N-(6-chloro-5-(2-(5-(3-fluoropyridin-2-yl)-2-methyl-7,8-dihydro-[1,3,4]thiadiazolo[2′,3′:2,3]imidazo[4,5-c]pyridine-6(5H)-yl)-2-oxoethoxy)pyridin-2-l)methanesulfonamide] gave an IC50 of 35 nM.

same assay, conditions: human TPH1, fluorescence readout

First: CCc1ncccc1OCC(=O)N1CCc2nc3sc(C)nn3c2C1c1coc(-c2ccccc2)n1 (stereo not shown) [Example 1.12.2, 2-((2-ethylpyridin-3-yl)oxy)-1-(2-methyl-5-(2-phenyloxazol-4-yl)-7,8-dihydro-[1,3,4]thiadiazolo[2′,3′:2,3]imidazo[4,5-c]pyridin-6(5H)-yl)ethanone]
Second: CCc1ncccc1OCC(=O)N1CCc2nc3sccn3c2C1c1ccc(Cl)cc1F (stereo not shown) [Example 6.4.7, 1-(5-(4-chloro-2-fluorophenyl)-7,8-dihydrothiazolo-[2′,3′:2,3]imidazo[4,5-c]pyridin-6(5H)-yl)-2-((2-ethylpyridin-3-yl)oxy)ethanone]
The IC50 of the first is 56-fold higher: 336 nM for the first, 6 nM for the second. The second is the more potent here.

First: O=C(COc1cccnc1Cl)N1CCc2nc3sccn3c2C1c1ccc(Cl)cc1F (stereo not shown) [Example 6.4.4, 1-(5-(4-chloro-2-fluorophenyl)-7,8-dihydrothiazolo-[2′,3′:2,3]imidazo[4,5-c]pyridin-6(5H)-yl)-2-((2-chloropyridin-3-yl)oxy)ethanone]
Second: O=C(COc1ccc(N2CCOCC2)nc1Cl)N1CCc2nc3sccn3c2C1c1ccc(C2CC2)cc1F (stereo not shown) [Example 6.6.1, 2-((2-chloro-6-morpholinopyridin-3-yl)oxy)-1-(5-(4-cyclopropyl-2-fluorophenyl)-7,8-dihydrothiazolo-[2′,3′:2,3]imidazo[4,5-c]pyridin-6(5H)-yl)ethanone]
The IC50 of the first is 3.2-fold higher: 13 nM for the first, 4 nM for the second. The second is the more potent here.

`COC(C)(C)c1ccc(C2c3c(nc4sc(C)nn34)CCN2C(=O)COc2ccc(C(=O)NC3CC3)nc2Cl)c(F)c1` (stereo not shown) [Example 1.81.1, 6-chloro-N-cyclopropyl-5-(2-(5-(2-fluoro-4-(2-methoxypropan-2-yl)phenyl)-2-methyl-7,8-dihydro-[1,3,4]thiadiazolo[2′,3′:2,3]imidazo[4,5-c]pyridin-6(5H)-yl)-2-oxoethoxy)picolinamide] and `Cc1nn2c3c(nc2s1)CCN(C(=O)COc1ccc(C(=O)N(C)C)nc1Cl)C3c1ccc(F)cc1F` (stereo not shown) [Example 1.55.1, 6-chloro-5-(2-(5-(2,4-difluorophenyl)-2-methyl-7,8-dihydro-[1,3,4]thiadiazolo[2′,3′:2,3]imidazo[4,5-c]pyridin-6(5H)-yl)-2-oxoethoxy)-N,N-dimethylpicolinamide] are within 1.5-fold of each other in IC50: 27 nM for the first, 19 nM for the second.

`Cc1nn2c3c(nc2s1)CCN(C(=O)COc1ccc(C(=O)N(C)C)nc1Cl)C3c1cncs1` (stereo not shown) [Example 1.39.2, 6-chloro-N,N-dimethyl-5-(2-(2-methyl-5-(thiazol-5-yl)-7,8-dihydro-[1,3,4]thiadiazolo[2′,3′:2,3]imidazo[4,5-c]pyridin-6(5H)-yl)-2-oxoethoxy)picolinamide] and `Cc1nn2c3c(nc2s1)CCN(C(=O)COc1ccc(C(=O)N(C)C)nc1Cl)C3c1cccc(F)c1F` (stereo not shown) [Example 1.62.1, 6-chloro-5-(2-(5-(2,3-difluorophenyl)-2-methyl-7,8-dihydro-[1,3,4]thiadiazolo[2′,3′:2,3]imidazo[4,5-c]pyridin-6(5H)-yl)-2-oxoethoxy)-N,N-dimethylpicolinamide] are within 1.5-fold of each other in IC50: 69 nM for the first, 65 nM for the second.

First: Cc1nn2c3c(nc2s1)CCN(C(=O)COc1cc(F)cnc1Cl)C3c1ncc(C2CC2)cc1F (stereo not shown) [Example 1.14.7, 2-((2-chloro-5-fluoropyridin-3-yl)oxy)-1-(5-(5-cyclopropyl-3-fluoropyridin-2-yl)-2-methyl-7,8-dihydro-[1,3,4]thiadiazolo [2′,3′:2,3]imidazo[4,5-c]pyridin-6(5H)-yl)ethanone]
Second: Cc1nn2c3c(nc2s1)CCN(C(=O)COc1cc(F)c(I)nc1Cl)C3c1ncc(C2CC2)cc1F (stereo not shown) [Example 1.14.6, 2-((2-chloro-5-fluoro-6-iodopyridin-3-yl)oxy)-1-(5-(5-cyclopropyl-3-fluoropyridin-2-yl)-2-methyl-7,8-dihydro-[1,3,4]thiadiazolo[2′,3′:2,3]imidazo[4,5-c]pyridin-6(5H)-yl)ethanone]
The IC50 of the first is 4.2-fold higher: 25 nM for the first, 6 nM for the second.

Going from `Cc1ccc(OCC(=O)N2CCc3nc4sccn4c3C2c2nc3ccccc3s2)cc1` (stereo not shown) [Example 6.12.1, 1-(5-(benzo[d]thiazol-2-yl)-7,8-dihydrothiazolo-[2′,3′:2,3]imidazo[4,5-c]pyridin-6(5H)-yl)-2-(p-tolyloxy)ethanone] to `COc1ccc(C2c3c(nc4sccn34)CCN2C(=O)COc2ccc(CN3CCOCC3)nc2Cl)c(F)c1` (stereo not shown) [Example 6.3.2, 2-((2-chloro-6-(morpholinomethyl)pyridin-3-yl)oxy)-1-(5-(2-fluoro-4-methoxyphenyl)-7,8-dihydrothiazolo-[2′,3′:2,3]imidazo[4,5-c]pyridin-6(5H)-yl)ethanone], the IC50 falls from 26 nM to 9 nM (2.9-fold). The second is the more potent here.

`Cc1nn2c3c(nc2s1)CCN(C(=O)COc1ccc(-c2ncco2)nc1Cl)C3c1ccc(C2CC2)cc1F` (stereo not shown) [Example 1.6.29, 2-((2-chloro-6-(oxazol-2-yl)pyridin-3-yl)oxy)-1-(5-(4-cyclopropyl-2-fluorophenyl)-2-methyl-7,8-dihydro-[1,3,4]thiadiazolo[2′,3′:2,3]imidazo[4,5-c]pyridin-6(5H)-yl)ethanone] and `CS(=O)(=O)Nc1ccc(OCC(=O)N2CCc3nc4sc(C5CC5)nn4c3C2c2ccc(Cl)cc2F)c(Cl)n1` (stereo not shown) [Example 4.1.1, N-(6-chloro-5-(2-(5-(4-chloro-2-fluorophenyl)-2-cyclopropyl-7,8-dihydro-[1,3,4]thiadiazolo-[2′,3′:2,3]imidazo[4,5-c]pyridin-6(5H)-yl)-2-oxoethoxy)pyridin-2-yl)methanesulfonamide] are within 1.5-fold of each other in IC50: 17 nM for the first, 16 nM for the second.

Going from `CNC(=O)c1ccc(C2c3c(nc4sc(C)nn34)CCN2C(=O)COc2ccc(C(=O)N(C)C)nc2Cl)o1` (stereo not shown) [Example 1.42.1, 6-chloro-N,N-dimethyl-5-(2-(2-methyl-5-(5-(methylcarbamoyl)furan-2-yl)-7,8-dihydro-[1,3,4]thiadiazolo[2′,3′:2,3]imidazo[4,5-c]pyridin-6(5H)-yl)-2-oxoethoxy)picolinamide] to `CCN(CC)C(=O)c1cc(F)c(C2c3c(nc4sc(C)nn34)CCN2C(=O)COc2ccc(NS(C)(=O)=O)nc2Cl)s1` (stereo not shown) [Example 1.64.1, 5-(6-(2-((2-chloro-6-(methylsulfonamido)pyridin-3-yl)oxy)acetyl)-2-methyl-5,6,7,8-tetrahydro-[1,3,4]thiadiazolo [2′,3′:2,3]imidazo[4,5-c]pyridin-5-yl)-N,N-diethyl-4-fluorothiophene-2-carboxamide], the IC50 falls from 49 nM to 21 nM (2.3-fold). The second is the more potent here.

Going from `CCc1nc(NS(C)(=O)=O)ccc1OCC(=O)N1CCc2nc3sc(CF)nn3c2C1c1ncc(C)cc1F` (stereo not shown) [Example 7.2.2, N-(6-ethyl-5-(2-(5-(3-fluoro-5-methylpyridin-2-yl)-2-(fluoromethyl)-7,8-dihydro-[1,3,4]thiadiazolo[2′,3′:2,3]imidazo[4,5-c]pyridin-6(5H)-yl)-2-oxoethoxy)pyridin-2-yl)methanesulfonamide] to `Cc1nn2c3c(nc2s1)CCN(C(=O)COc1c(F)cc(N2CCOCC2)nc1Cl)C3c1ncc(C2CC2)cc1F` (stereo not shown) [Example 1.14.12, 2-((2-chloro-4-fluoro-6-morpholinopyridin-3-yl)oxy)-1-(5-(5-cyclopropyl-3-fluoropyridin-2-yl)-2-methyl-7,8-dihydro-[1,3,4]thiadiazolo[2′,3′:2,3]imidazo[4,5-c]pyridin-6(5H)-yl)ethanone], the IC50 rises from 20 nM to 41 nM (2-fold). The first is the more potent here.
